Laboratory results from patent US20160311812A1, “ADENOSINE A1 AGONISTS AS MEDICAMENTS FOR KIDNEY DISORDERS” (BAYER PHARMA AKTIENGESELLSCHAFT, priority 2013, published 2016).

What was measured:
[1] = test system: 5/6 nephrectomy rat model; test: Functional and structural renal dysfunction in 5/6 nephrectomized rats; assay type: in vivo; conditions: 4 weeks; for End organ injury marker concentration in the urine: hFABP / End organ injury marker concentration in the urine: hFABP per creatinine: ELISA; for Kidney injury marker-1 [gene expression] / Lipocalin-2 [gene expression] / Osteopontin [gene expression]: renal cortex
Description: (§1) B-3. Effects of Partial A1 Agonists on Renal and Cardiac Function in 5/6 Nephrectomized Rats (Example 1 for Chronic Kidney Disorder)
(§2) 5/6 nephrectomy in the rat, in which one kidney and the renal cortex of the second kidney are surgically removed (=5/6 of functional kidney tissue) is an established animal model for interstitial renal fibrosis and chronic renal insufficiency [C. Fleck et al., “Suitability of 5/6 nephrectomy (5/6NX) for the induction of interstitial renal fibrosis in rats Influence of sex, strain, and surgical procedure”, Exp. Tox. Pathology 2006, 57, 195-205]. The model is characterized by progressive proteinuria, disturbed tubular electrolyte transport, a reduced glomerular filtration rate, an increase in urinary output, interstitial fibrosis with reactively occurring lymphocyte infiltrates, glomerulosclerosis and tubular atrophy. The level of proteinuria is a specific index of the renal function prognosis: the higher the proteinuria, the greater is the functional and structural kidney injury and therefore progression of chronic to terminal renal insufficiency (uraemia). During monitoring of therapy, e.g. with the ACE inhibitor enalapril, the course of proteinuria provides information on the functional and structural response to the therapy and thus on the renal function prognosis. As a result of the renal insufficiency and accumulation of umemic toxins, in the animals there is secondary development of a umemic cardiomyopathy, depending on the severity associated with hypertension, increased heart rate, reduced parasympathetic tone, myocardial, left-ventricular hypertrophy and fibrosis, diastolic dysfunction and an increased prevalence of arrhythmias [Svilerova et al. 2010 Physiol Res 59: S81-S88).
(§3) Procedure: male Wistar:WU rats (210-250 g) from Charles River had the left kidney and the renal cortex of the right kidney removed (=SNX) in one session; sham-operated rats served as control group (=SOP). The following groups, each with 12 rats per group, were investigated:
(§4) Group 2 SNX+placebo (60 g glycerol+100 g water+969 g PEG-400)
(§5) Group 3 SNX+10 mg/kg body weight/day enalapril (reference therapy, in the drinking water)
(§6) Group 4 SNX+0.1 mg/kg body weight/day partial A1 agonist EXAMPLE 1, p.o. in placebo
(§7) Group 5 SNX+1.0 mg/kg body weight/day partial A1 agonist EXAMPLE 1, p.o. in placebo
(§8) Group 6 SNX+0.3 mg/kg body weight/day partial A1 agonist EXAMPLE 4, p.o. in placebo
(§9) Group 7 SNX+3.0 mg/kg body weight/day partial A1 agonist EXAMPLE 4, p.o. in placebo
(§10) Three weeks after 5/6 nephrectomy, the rats developed manifest proteinuria, from this time point the rats were treated for a further four weeks corresponding to the groups stated above. At the end of the protocol, the following samples were obtained/measurements were carried out: eight-hour urine collection with determination of the concentration of hFABP in the urine by ELISA (Rat/Mouse h-FABP ELISA, Hycultbiotech), as marker for end organ damage, invasive measurement of the isoprenaline-induced increase (cumulatively 12.5 ng-250 ng/kg isoprenaline, i.v.) in systolic and diastolic left ventricular function, and TaqMan analyses of renal injury markers in the renal cortex.

[2] = test system: 5/6 nephrectomy rat model; test: Left-ventricular diastolic dysfunction under isoprenaline infusion in 5/6 nephrectomized rats; assay type: in vivo; conditions: 4 weeks
Description: as §1, §2, §3, §4, §5, §6, §7, §8, §9, §10

[3] = Group 4: SNX + 0.1 mg/kg body weight/day p.o.
[4] = Group 5: SNX + 1.0 mg/kg body weight/day p.o.

## N#Cc1c(N)nc(SCc2csc(-c3ccc(Cl)cc3)n2)c(C#N)c1-c1ccc(OCCO)cc1 [EXAMPLE 1, 2-Amino-6-({[2-(4-chlorophenyl)-1,3-thiazol-4-yl]methyl}sulphanyl)-4-[4-(2-hydroxyethoxy)phenyl]pyridine-3,5-dicarbonitrile]
[1]; [3]
  P-creatinine: 66 ± 1 µmol/L
  P-urea: 11 ± 0.5 mmol/L
  U-creatinine: 2.4 ± 0.3 μmol/ml urine/kg BW/h
  U-protein: 1.07 ± 0.28 μmol/ml urine/kg BW/h
  U-sodium: 18 ± 3 μmol/ml urine/kg BW/h
  U-urea: 260 ± 31 μmol/ml urine/kg BW/h
  Urine volume: 2.2 ± 0.1 ml/kg BW/h
  End organ injury marker concentration in the urine: hFABP: 1088 ± 159 pg hFABP/ml urine/h
  End organ injury marker concentration in the urine: hFABP per creatinine: 194 ± 36 pg hFABP/μmol creatinine
  Kidney injury marker-1 [gene expression]: 60 ± 17 rel. expression
  Lipocalin-2 [gene expression]: 307 ± 51 rel. expression
  Osteopontin [gene expression]: 6008 ± 1209 rel. expression
[1]; [4]
  P-creatinine: 63 ± 1 µmol/L
  P-urea: 11 ± 0.3 mmol/L
  U-creatinine: 2.3 ± 0.3 μmol/ml urine/kg BW/h
  U-protein: 0.75 ± 0.14 μmol/ml urine/kg BW/h
  U-sodium: 31 ± 3 μmol/ml urine/kg BW/h
  U-urea: 264 ± 35 μmol/ml urine/kg BW/h
  Urine volume: 2.0 ± 0.2 ml/kg BW/h
  End organ injury marker concentration in the urine: hFABP: 1136 ± 229 pg hFABP/ml urine/h
  End organ injury marker concentration in the urine: hFABP per creatinine: 175 ± 39 pg hFABP/μmol creatinine
  Kidney injury marker-1 [gene expression]: 62 ± 13 rel. expression
  Lipocalin-2 [gene expression]: 313 ± 65 rel. expression
  Osteopontin [gene expression]: 5476 ± 1131 rel. expression
[2]; isoprenaline 0 ng/kg body weight, Group 4: SNX + 0.1 mg/kg body weight/day p.o.
  left-ventricular pressure decrease as a function of time: 6769 ± 206 mmHg/s
[2]; isoprenaline 0 ng/kg body weight, Group 5: SNX + 1.0 mg/kg body weight/day p.o.
  left-ventricular pressure decrease as a function of time: 6516 ± 334 mmHg/s
[2]; isoprenaline 12.5 ng/kg body weight, Group 4: SNX + 0.1 mg/kg body weight/day p.o.
  left-ventricular pressure decrease as a function of time: 7990 ± 208 mmHg/s
[2]; isoprenaline 12.5 ng/kg body weight, Group 5: SNX + 1.0 mg/kg body weight/day p.o.
  left-ventricular pressure decrease as a function of time: 7126 ± 283 mmHg/s
[2]; isoprenaline 25 ng/kg body weight, Group 4: SNX + 0.1 mg/kg body weight/day p.o.
  left-ventricular pressure decrease as a function of time: 8283 ± 222 mmHg/s
[2]; isoprenaline 25 ng/kg body weight, Group 5: SNX + 1.0 mg/kg body weight/day p.o.
  left-ventricular pressure decrease as a function of time: 7309 ± 285 mmHg/s
[2]; isoprenaline 50 ng/kg body weight, Group 4: SNX + 0.1 mg/kg body weight/day p.o.
  left-ventricular pressure decrease as a function of time: 8913 ± 282 mmHg/s
[2]; isoprenaline 50 ng/kg body weight, Group 5: SNX + 1.0 mg/kg body weight/day p.o.
  left-ventricular pressure decrease as a function of time: 7990 ± 213 mmHg/s
[2]; isoprenaline 100 ng/kg body weight, Group 4: SNX + 0.1 mg/kg body weight/day p.o.
  left-ventricular pressure decrease as a function of time: 9701 ± 300 mmHg/s
[2]; isoprenaline 100 ng/kg body weight, Group 5: SNX + 1.0 mg/kg body weight/day p.o.
  left-ventricular pressure decrease as a function of time: 8722 ± 183 mmHg/s
[2]; isoprenaline 250 ng/kg body weight, Group 4: SNX + 0.1 mg/kg body weight/day p.o.
  left-ventricular pressure decrease as a function of time: 9721 ± 307 mmHg/s
[2]; isoprenaline 250 ng/kg body weight, Group 5: SNX + 1.0 mg/kg body weight/day p.o.
  left-ventricular pressure decrease as a function of time: 9028 ± 226 mmHg/s
